This note sets out measurements from patent US12070037B2, “Methods and compositions for bioprotection of potatoes from Streptomyces scabies” (THE ROYAL INSTITUTION FOR THE ADVANCEMENT OF …, priority 2018, dated 2024).

The test deals with Streptomyces scabies. Put plainly: agar well diffusion assay. Type of test: cell-based. On the procedure:
In addition, the antimicrobial activity of the crude extracts from Bacillus pumilus and Bacillus subtilis was assessed via agar well diffusion assay. A spore suspension of Streptomyces scabies was overlaid on PDA and the plates were allowed to air dry. A 50 μL drop of crude extracts from Bacillus pumilus (top), Bacillus pumilus (right), and Bacillus subtilis (left) were poured into agar well and a control solution was pour on the bottom of the agar well.
The concentrated material (crude extract) in the vessel was suspended in 10% acetonitrile (AcN/H2O, v/v) and frozen at −20° C. until further analysis. The crude extract was centrifuged (Sorvall Biofuge Pico, Mandel Scientific, ON, Canada) at 13,000 rpm for 30 min to remove insoluble particles. The supernatant was filter sterilized (PVDF, […], Fisher Scientific, Montreal, Canada) and tested for biological activity against Streptomyces scabies. The filtered extract was then loaded onto a C18 column (Restek™, Fisher Scientific, Montreal, Canada) and eluted with 20 mL of 10%, 20%, 40%, 60%, 80% and 100% acetonitrile and the fractions were collected. The eluted fractions under various concentrations of acetonitrile were lyophilized (SNL216V, Savant Instruments Inc., NY, USA), suspended in sterilized distilled water and tested for biological activity against Streptomyces scabies. The fraction showing an inhibition zone against Streptomyces scabies was selected for further fractionation by HPLC. The active fraction was stored in sterilized vials at 4° C. prior to HPLC analysis.
The antimicrobial activities of Micrococcin P1 at various concentrations were assessed via agar well diffusion assay. A spore suspension of Streptomyces scabies was overlaid on PDA and the plates were allowed to air dry. A 50 μL drop of Micrococcin P1 diluted in various concentrations were applied into agar well.
Background: In agar diffusion tests the substance spreads into inoculated agar from a disc or well.

As to Micrococcin P1, under “per well, in 50 μL, PDA, 3 days 30° C.”, the “minimal amount giving growth inhibition zones” value is reported as at least 31.25 ng. Also, the “antimicrobial activity of the standard” value (tested for biological activity) was “showed antimicrobial activity against Streptomyces scabies”. Besides, the “dose dependence of antibacterial activities” value (up to 5 mg/L (4.37 μM), highest concentration tested) is recorded as “increased proportional to the Micrococcin P1 concentrations”.
